Experimental data from patent US6613322B2, “Method for treating a subject suffering from conditions associated with an extracellular zinc sphingomyelinase” (The Trustees of Columbia University in the City of New York, priority 1997, dated 2003).
Each block holds one molecule with its values, some of them ahead of it.

Assays:
arterial-wall SMase = conditions: for hydrolysis of LDL-sphingomyelin by rabbit aorta ex vivo (summary statement): Example 4 restatement
Method: Hydrolysis of [^3H]SM-LDL by strips of rabbit aorta. Aortae were isolated from rabbits fed a high-cholesterol diet for 18 d and incubated ex vivo for 3.5 h at 37° C. with 2 mg [^3H]palmitate-SM-labeled LDL per ml DMEM/0.2% BSA (usually ^18 12 mg total). Material extracted from these strips (Retained) was assayed for [^3H]SM and [^3H]ceramide; approximately 0.1% of the [^3H]SM-LDL (10-20 μg LDL protein) was retained during the 3.5-h incubation period. These [^3H]lipids were also assayed in ^3[H]SM-LDL not exposed to aorta but incubated in extraction buffer (No Aorta) as well as in [^3H]SM-LDL that was not retained by the aortic strips (i.e., still present in the medium after the 3.5-h incubation) and also incubated in extraction buffer (Unretained). For experiments #1 and #2 (FIG. 6A), portions of the aortic strips were preincubated with DMEM/0.2% BSA containing 15 mM EDTA for 30 min, and the 3.5-h incubation was also carried out in the presence of 15 mM EDNA.
Assay for LDL-SM hydrolysis by strips of rabbit aorta ex vivo. New Zealand white male rabbits (2-3 kg) were fed a chow diet containing 0.2% cholesterol and 10% soybean oil (w/w) for 18 days. The animals were sacrificed, and the thoracic aortae were removed rapidly and placed in a dissection dish with physiological Hank's Trizma maleate buffer (133 mM NaCl, 3.6 mM KCl, 1.0 mM CaCl2, 5.0 mM Trizma maleate, 16 mM dextrose, pH 7.3). The aortae were then further dissected to remove excess fat and any clotted blood and then cut longitudinally and pinned, lumen side up, in a tissue culture dish. The aortic strips were washed several times with DMEM/0.2% BSA and incubated at 37° C. for 3.5 h in DMEM/0.2% BSA containing 2 mg [^3H]SM-labeled LDL per ml. […] When present, these reagents were also added to the corresponding incubation media containing labeled LDL (see legend to FIG. 5). After the 3.5-h incubation of labeled LDL with aortic strips, media were removed (see below), the aortic strips were quickly washed twice in ice-cold PBS, and the center of the strip was cut away from the original cut ends. These center pieces were then minced and extracted in PBS, pH 7.4, containing 6 M guanidine-HCl, 5 mM EDTA, 0.02% sodium azide, 35 μM leupeptin, 1.5 mg aprotinin/ml, and 5 μM pepstatin A for 36 h at 4° C. The extract was centrifuged at 35,000×g for 30 min, and lipids were extracted from the supernate by the method of Bligh and Dyer (Bligh et al., 1959). [^3H]palmitate-SM, ^3 [H]palmitate-ceramide, and free [^3H]palmitate in the lipid extracts were separated by TLC using chloroform:methanol (95:5, v/v) or n-propanol:12.5% ammonium hydroxide (80:20, v/v). […]

lysosomal hydrolases = assay: 125I-EGF degradation by aortic strips; parameters: species or system rabbit; conditions: 200 μM chloroquine, 3.5 h
Method: Iodination of EGF and assay for ^125I-EGF degradation. Epidermal growth factor (50 μg) was radioiodinated to a specific activity of 5400 counts/min/ng (IODOBEADS®, Pierce Chemical Co., Rockford, Ill.) and was used within 48 h of labeling.
For this study, ^125I-labeled epidermal growth factor (^125I-EGF) was used, which is known to be internalized by receptor-mediated endocytosis and degraded in lysosomes in many cell types (Goldstein et al., 1985).

lysosomal SMase = target: T1, lysosomal SMase (Homo sapiens, UniProt P17405); assay: Cellular hydrolysis of [3H]SM-LDL by cultured human fibroblasts; format: cell-based; conditions: read-out: inhibition of cellular hydrolysis of [3H]SM-LDL
T1 construct: endogenous in cells; host or cells: cultured human fibroblasts
T1 sequence (P17405 47-631): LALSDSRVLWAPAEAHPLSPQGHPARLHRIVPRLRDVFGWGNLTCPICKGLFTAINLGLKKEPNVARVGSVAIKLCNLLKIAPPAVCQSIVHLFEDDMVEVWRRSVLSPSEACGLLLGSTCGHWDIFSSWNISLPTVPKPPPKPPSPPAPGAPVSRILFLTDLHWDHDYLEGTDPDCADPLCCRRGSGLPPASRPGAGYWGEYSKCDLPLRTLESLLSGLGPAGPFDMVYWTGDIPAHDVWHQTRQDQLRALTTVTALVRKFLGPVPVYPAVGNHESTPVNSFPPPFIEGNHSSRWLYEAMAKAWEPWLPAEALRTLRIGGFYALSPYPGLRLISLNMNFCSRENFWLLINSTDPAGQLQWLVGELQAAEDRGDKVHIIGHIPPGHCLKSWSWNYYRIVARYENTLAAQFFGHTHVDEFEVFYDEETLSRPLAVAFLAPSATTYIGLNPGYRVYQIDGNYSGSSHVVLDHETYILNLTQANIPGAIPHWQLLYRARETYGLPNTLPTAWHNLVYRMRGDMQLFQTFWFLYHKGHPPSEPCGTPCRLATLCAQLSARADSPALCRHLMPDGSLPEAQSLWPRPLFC
Method: Second, the ability of chloroquine to work in the aortic strip assay was tested.

B. cereus SMase = B. cereus SMase (Bacillus cereus, UniProt P11889); conditions: 25 mM EDTA present from the start; 50 mU B. cereus SMase/ml, LDL 2 mg/ml, 37° C.
Method: Kinetics of SM hydrolysis and LDL aggregation induced by SMase and the effects of enzymatic inhibition. FIG. 1A: LDL (2 mg/ml) was incubated with 50 mU B. cereus SMase/ml at 37° C. in PES containing 5 nM MgCl2. At the indicated time points, aliquots of the LDL were harvested then assayed for extent of SM hydrolysis (closed triangles) and for aggregation (open squares) FIG. 1B. LDL was incubated in PBS containing 5 mM MgCl2 in the absence of SMase (filled circles), or in the presence of SMase without EDTA (open squares), with 25 mM EDTA present from the start of the incubation (open triangles), or with 25 mM EDTA added after 20 min of incubation (closed triangles) Samples were assayed for turbidity at the indicated timepoints. FIG. 1C, Aliquots from the 180-min timepoint in FIG. 1B were assayed for SM content.
Careful analysis of the time course of B. cereus SMase-induced LDL aggregation and LDL-SM hydrolysis was done. […] These kinetics are consistent with two possible mechanisms: a slow structural action of SMase, or a rapid enzymatic action that alters the particles so that they then slowly aggregate. To distinguish between these possibilities, EDTA was used to inhibit the enzymatic activity of the bacterial B. cereus SMase, which is a Mg^2+-dependent enzyme (Ikezawa et al., 1986).

S-SMase = target: T2, S-SMase (Mus musculus, UniProt Q04519); assay: SMase assay of conditioned medium from J774 macrophages (SM micelles, pH 5.0); format: biochemical; conditions: treatment with EDTA alone
T2 construct: endogenous in cells; host or cells: J774.A1 macrophages, serum-free conditioned medium
T2 sequence (Q04519 45-627): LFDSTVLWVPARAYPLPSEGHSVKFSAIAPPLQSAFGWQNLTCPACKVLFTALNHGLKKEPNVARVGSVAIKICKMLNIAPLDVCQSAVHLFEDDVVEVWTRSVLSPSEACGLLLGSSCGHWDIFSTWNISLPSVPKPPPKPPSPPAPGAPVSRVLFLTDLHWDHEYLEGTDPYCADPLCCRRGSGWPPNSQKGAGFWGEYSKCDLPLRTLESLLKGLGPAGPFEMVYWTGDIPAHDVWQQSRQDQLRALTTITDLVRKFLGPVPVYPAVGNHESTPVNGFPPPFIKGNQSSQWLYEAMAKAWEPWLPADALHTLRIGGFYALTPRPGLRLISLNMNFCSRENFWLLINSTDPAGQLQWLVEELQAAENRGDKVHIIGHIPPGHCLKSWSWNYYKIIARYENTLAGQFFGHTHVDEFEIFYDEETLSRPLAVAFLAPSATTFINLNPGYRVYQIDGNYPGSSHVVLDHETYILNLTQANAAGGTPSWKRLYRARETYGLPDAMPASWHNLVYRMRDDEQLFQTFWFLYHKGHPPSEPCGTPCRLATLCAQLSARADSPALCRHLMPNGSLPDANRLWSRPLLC
Method: FIGS. 14A-B. Sequential chelation and addition of Zn^2+ to secreted and intracellular SMase. Serum-free conditioned medium and a cell homogenate from J774 macrophages were prepared as described in “Experimental Procedures”. FIG. 14A, conditioned medium (CM) was assayed for SMase activity using 250 nM [^3H]sphingomyelin in Triton X-100 micelles in the presence of either 5 mM EDTA (first bar) or 0.1 mM ZnCl2 (second bar) for 1 h at 37° C. at pH 5.0. An aliquot of the Zn-activated conditioned medium was then incubated for 18 h in the presence of 10 mM EDTA, 10 mM 1,10-phenanthroline, and 0.6% Triton X-100 at 4° C. (EDTA PHNANTH) and then assayed for SMase activity (third bar). After chelation, a portion of this partially inactivated conditioned medium was then dialyzed against zinc-containing buffer C (150 mM NaCl, 10 mM Tris-HCl, 1 mM ZnCl2, 0.6% Triton X-100, pH 7.4) for 18 h and then assayed for SMase activity (fourth bar). FIG. 14B, an aliquot of cell homogenate (Cell Homgn) was assayed for SMase activity in the presence of assay buffer alone (first bar), 5 mM EDTA (second bar), or 0.1 mM ZnCl2 (third bar). Another aliquot of cell homogenate was incubated for 8 h in the presence of 10 mM EDTA, 10 mm 1,10-phenanthroline, and 0.6% Triton X-100 (EDTA PHNANTH) at 4° C. and then assayed for SMase activity (fourth bar). An aliquot of this chelator-treated cell homogenate was then dialyzed against zinc-containing buffer C for 18 h and then assayed for SMase activity (fifth bar).
(§1) SMase Assay—As previously described (Schissel et al., 1996), the standard 200-μl assay mixture consisted of up to 40 μl of sample (conditioned media or homogenized cells; see above) and a volume of assay buffer (0.1 M sodium acetate, pH 5.0) to bring the volume to 160 μl. […] The ceramide spots were scraped and directly counted to quantify [^3H]ceramide. Typically, the assay reactions contained approximately 20 μg of cellular homogenate protein and a volume of conditioned media derived from a quantity of cells equivalent to approximately 50 μg of cellular protein.

L-SMase = target: T3, L-SMase (Mus musculus, UniProt Q04519); assay: SMase assay of cell homogenate from J774 macrophages (SM micelles, pH 5.0); format: biochemical; conditions: 5 mM EDTA in assay
T3 construct: endogenous in cells; host or cells: J774.A1 macrophages, sonicated cell homogenate
T3 sequence (Q04519 45-627): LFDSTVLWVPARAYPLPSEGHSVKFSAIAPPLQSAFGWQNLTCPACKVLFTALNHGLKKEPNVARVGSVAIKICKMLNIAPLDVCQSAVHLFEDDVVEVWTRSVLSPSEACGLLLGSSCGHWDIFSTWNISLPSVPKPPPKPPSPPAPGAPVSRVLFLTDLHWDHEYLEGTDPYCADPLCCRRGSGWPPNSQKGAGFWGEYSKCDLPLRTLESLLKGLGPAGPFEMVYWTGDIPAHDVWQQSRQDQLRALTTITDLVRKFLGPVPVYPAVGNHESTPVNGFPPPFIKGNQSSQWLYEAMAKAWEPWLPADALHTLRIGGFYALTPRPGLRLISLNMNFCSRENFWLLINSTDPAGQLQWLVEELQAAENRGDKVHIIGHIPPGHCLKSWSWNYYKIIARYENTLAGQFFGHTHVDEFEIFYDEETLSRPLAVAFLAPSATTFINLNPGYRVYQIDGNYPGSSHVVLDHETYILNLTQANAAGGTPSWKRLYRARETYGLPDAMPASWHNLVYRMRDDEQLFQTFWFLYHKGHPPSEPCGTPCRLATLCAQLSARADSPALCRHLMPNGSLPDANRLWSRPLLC
Method: FIGS. 14A-B. Sequential chelation and addition of Zn^2+ to secreted and intracellular SMase. Serum-free conditioned medium and a cell homogenate from J774 macrophages were prepared as described in “Experimental Procedures”. FIG. 14A, conditioned medium (CM) was assayed for SMase activity using 250 nM [^3H]sphingomyelin in Triton X-100 micelles in the presence of either 5 mM EDTA (first bar) or 0.1 mM ZnCl2 (second bar) for 1 h at 37° C. at pH 5.0. An aliquot of the Zn-activated conditioned medium was then incubated for 18 h in the presence of 10 mM EDTA, 10 mM 1,10-phenanthroline, and 0.6% Triton X-100 at 4° C. (EDTA PHNANTH) and then assayed for SMase activity (third bar). […]
as §1

EC matrix = assay: 125I-S-SMase binding to matrix derived from cultured cells; conditions: in presence of lipoprotein lipase
Source text: In vitro, Smase causes lipoprotein aggregation, which is a key feature of atheromata and an inducer of foam cells. […] We have identified S-Mase (JBC 271:18431) as a candidate for this arterial Smase, owing to its secretion by endothelial cells (ECs) and macrophages and for its ability to hydrolzye atherogenic lipoproteins (JBC 273:2738 & 4081). We addressed two questions critical to the role of S-SMase in atherogenesis: is S-SMase present in lesions and does S-SMase bind matrix after secretion? Using two different anti-SMase antibodies, Smase staining was prominent in the endothelium of normal rabbit and mouse aorta. In atherosclerotic aorta from cholesterol-fed rabbits and apoE knockout mice and in human coronary lesions, there was very heavy Smase staining throughout the entire intima (endothelium and foam cells). In both normal and lesional aorta, there was staining of the mdia but far less than in the intima. […] To explore this point in vitro, ^125I-S-SMase was incubated with matrix derived from cultured smooth muscle or Ecs. With both, the moles of bound ^125I-S-SMase were≧bound ^125I-LDL, which is known to associate with matrix in vitro and in vivo. […] In summary, Smase, an enzyme implicated in atherogenesis, is present in normal endothelium and especially lesional intima, and there is evidence that S-Mase binds matrix both in vivo and in vitro.

L-SMase of HUVECs = assay: Cytokine regulation of L-SMase activity in HUVEC cell homogenates; format: cell-based, human; conditions: cytokine-treated endothelial cells
Method: FIGS. 23A-B. Cytokine regulation of S- and L-SMase of HUVECs. […] Conditioned media (FIG. 23A) and cell homogenates (FIG. 23B) from these cells were then assayed for SMase activity in the presence or absence of 0.1 mM ZnCl2, respectively.
Cells—Primary cultures of HUVEC were obtained from fresh umbilical cords and maintained in cell culture as previously described (31). Human coronary artery endothelial cells from a donor were purchased from Clonetics Corp. (San Diego, Calif.; cat. # CC-2585, Strain #3033). The cells were grown in endothelial basal media (EBM) (Clonetics) supplemented with 10% HI-FES; 10 μg endothelial cell growth supplement/ml (Sigma; cat. # E0760) and 50 μg gentamicin/ml. Primary cultures of bovine aortic endothelial, cells were established and subcultured as described previously (32). […]

[1] = tested on: S-SMase secretion by HUVECs; assay: Cytokine regulation of S-SMase secretion by HUVECs (SMase activity in conditioned media); format: cell-based, human; conditions: 18 h, IL-1β 5 ng/ml, interferon-γ 1000 units/ml
Method: The cells were then washed 3 times with PBS and incubated for 24 h in 1 ml fresh serum-free media containing 0.2%6 BSA. This 24-h conditioned medium was collected for SMase assays.
Harvesting of Cells and Conditioned Media—Following the incubations described above and in the figure legends, cells were placed on ice and the serum-free conditioned media was removed. The cells were washed two times with ice-cold 0.25 M sucrose and scraped into 0.3 ml and 3.0 ml of this sucrose solution per 35-mm and 100-mm dishes, respectively. Unless indicated otherwise, the scraped cells were disrupted by sonication on ice using three 5-second bursts (Branson 450 Sonifier), and the cellular homogenates were assayed for total protein by the method of Lowry et al. (22) and for SMase activity as described below. The conditioned media were spun at 800×g for 5 min to pellet any contaminating cells and concentrated six-fold using a Centriprep 30 (Amicon; Beverly, Mass.) concentrator (molecular weight cut off=30,000).
Typically, our assay reactions contained approximately 20 μg of cellular homogenate protein and a volume of conditioned media derived from a quantity of cells equivalent to approximately 50 μg of cellular protein.

Sequence of B. cereus SMase (P11889 28-333): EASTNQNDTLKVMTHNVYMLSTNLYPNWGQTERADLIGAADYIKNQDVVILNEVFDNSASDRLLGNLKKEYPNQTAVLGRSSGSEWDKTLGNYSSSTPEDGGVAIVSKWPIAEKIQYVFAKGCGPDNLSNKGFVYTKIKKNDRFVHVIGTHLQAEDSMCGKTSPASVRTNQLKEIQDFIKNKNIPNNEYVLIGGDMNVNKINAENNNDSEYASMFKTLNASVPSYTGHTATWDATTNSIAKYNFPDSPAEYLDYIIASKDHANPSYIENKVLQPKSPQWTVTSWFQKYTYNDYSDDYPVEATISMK

- inhibition of [3H]ceramide enrichment of retained material (arterial-wall SMase; 200 μM chloroquine, 30 min preincubation and 3.5-h incubation): no substantial inhibition
- inhibition at 50 µM (lysosomal SMase): 73%
Molecule: CCN(CC)CCCC(C)Nc1ccnc2cc(Cl)ccc12 (stereo not shown) [chloroquine]
- hydrolysis of LDL-sphingomyelin by rabbit aorta ex vivo (summary statement) (arterial-wall SMase): not inhibited
- block of degradation of 125I-EGF (lysosomal hydrolases): 50%

Molecule: O=C(O)CN(CCN(CC(=O)O)CC(=O)O)CC(=O)O [EDTA]
- inhibition of LDL aggregation (turbidity) (B. cereus SMase): complete inhibition
- inhibition of LDL-SM hydrolysis (B. cereus SMase): complete inhibition
- effect on S-SMase enzyme activity (S-SMase): did not affect enzyme activity
- decrease in generation of ceramide in extracted (retained) material (arterial-wall SMase; 15 mM EDTA, 30 min preincubation and 3.5-h incubation with [3H]SM-LDL): approximately 50%
- hydrolysis of LDL-sphingomyelin by rabbit aorta ex vivo (summary statement) (arterial-wall SMase): inhibited
- inhibition of L-SMase in cell homogenates (L-SMase): not inhibited

B1: lipoprotein lipase: arterial-wall enzyme (protein, UniProt P06858 28-475, looked up)
Lipoprotein lipase: ADQRRDFIDIESKFALRTPEDTAEDTCHLIPGVAESVATCHFNHSSKTFMVIHGWTVTGMYESWVPKLVAALYKREPDSNVIVVDWLSRAQEHYPVSAGYTKLVGQDVARFINWMEEEFNYPLDNVHLLGYSLGAHAAGIAGSLTNKKVNRITGLDPAGPNFEYAEAPSRLSPDDADFVDVLHTFTRGSPGRSIGIQKPVGHVDIYPNGGTFQPGCNIGEAIRVIAERGLGDVDQLVKCSHERSIHLFIDSLLNEENPSKAYRCSSKEAFEKGLCLSCRKNRCNNLGYEINKVRAKRSSKMYLKTRSQMPYKVFHYQVKIHFSGTESETHTNQAFEISLYGTVAESENIPFTLPEVSTNKTYSFLIYTEVDIGELLMLKLKWKSDSYFSWSDWWSSPGFAIQKIRVKAGETQKKVIFCSREKVSHLQKGKAPAVFVKCHDKSLNKKSG
- S-SMase binding to matrix (EC matrix): enhanced

B2: interferon-γ: human recombinant interferon-γ (protein, UniProt P01579 24-161, looked up)
Interferon gamma: QDPYVKEAENLKKYFNAGHSDVADNGTLFLGILKNWKEESDRKIMQSQIVSFYFKLFKNFKDDQSIQKSVETIKEDMNVKFFNSNKKKRDDFEKLTNYSVTDLNVQRKAIHELIQVMAELSPAAKTGKRKRSQMLFRG
- L-SMase (lysosomal SMase) activity (L-SMase of HUVECs): decreased
- increase of S-SMase activity / secretion (conditioned media) [1]: ~3 fold
